# Measurements as given in patent publication US6486199B1, “Spiro and dispiro 1,2,4-trioxolane antimalarials” (Medicines for Malaria Venture MMV International Centre …, priority 2001, dated 2002).
# Where two headings read alike, the source gives them in different places. Marks after values point to notes of the source that are not given here.
# Legend:
# [1] = tested on: ANKA strain of P. Berghei; test: single dose STI in vivo screen in infected Moro SPF mice; details: for Activity (%) po / Activity (%) sc: percent reduction in parasitemia day 3 post-infection; for inhibition in vivo at 10 mg/kg: Plasmodium berghei, 72 h; for in vivo activity: 10 mg/kg po/sc data of Table 2
# [2] = tested on: chloroquine-resistant K1 strain of P. falciparum; test: in vitro screen against chloroquine-resistant K1 strain of P. falciparum; format: cell-based; details: for IC50: Plasmodium falciparum; for in vitro potency: strains not distinguished
# [3] = tested on: chloroquine-sensitive NF54 strain of P. falciparum; test: in vitro screen against chloroquine-sensitive NF54 strain of P. falciparum; format: cell-based; details: for IC50: Plasmodium falciparum
# P. berghei [4] = test: 1-day Peters test against P. berghei in vivo; details: for ED50 / ED90: Plasmodium berghei, 24 h; for ED90: read-out: P. berghei (1 day) ED90 po
# P. berghei [5] = test: 4-day Peters test against P. berghei in vivo; details: for ED50: Plasmodium berghei, 96 h
# [6] = differential scanning calorimetry (DSC), thermal stability; format: physicochemical; details: thermal decomposition
# [7] = tested on: adult schistosomes (49-day-old) of Schistosoma mansoni; test: effect on adult schistosomes (49-day-old) in mice; format: in vivo; details: single 400 mg/kg per os; for TWR (%): total worm reduction rate; for Mean total worm burden: x ± SD
# Description: Mice were infected with 100 Schistosoma mansoni cercariae […]. Each group was treated per os with OZ compounds at a single dose of 400 mg/kg. Untreated mice served as the control. All groups were killed 4 weeks after treatment and the liver and intestine were removed and separated. The liver and intestine were compressed and alive male and female worms could be seen and counted.
# [8] = tested on: 21-day-old schistosomules of Schistosoma mansoni; test: effect on 21-day-old schistosomules in mice; format: in vivo; details: single 200 mg/kg per os; for FWR (%): female worm reduction rate; for Mean female worm burden: mean ± standard deviation; for TWR (%): total worm reduction rate
# Description: […] Each group was treated per os with OZ compounds at a single dose of 200 mg/kg. Untreated mice served as the control. All groups were killed 4 weeks after treatment and the liver and intestine were removed and separated. The liver and intestine were compressed and alive male and female worms could be seen and counted. The effect of the compounds was evaluated by mean total and female worm burden.
# [9] = NF54, read-out: IC50 (ng/ml) NF54
compound,measurement,setting,value
"C[C@@H]1CC[C@H]2[C@@H](C)C(=O)O[C@@H]3O[C@@]4(C)CC[C@@H]1[C@]32OO4 [Artemisinin, artemisinin, reference compound]",Activity (%) po,[1]; single 10 mg/kg po,65%
same,Activity (%) sc,[1]; single 10 mg/kg sc,87%
same,Activity (%) po,[1]; single 100 mg/kg po,98%
same,Activity (%) sc,[1]; single 100 mg/kg sc,100%
same,Survival (days) po,[1]; single 10 mg/kg po,6.5 days
same,Survival (days) sc,[1]; single 10 mg/kg sc,7.0 days
same,Survival (days) po,"[1]; single 100 mg/kg po, survival to day 30 = cure",7.3 days
same,Survival (days) sc,"[1]; single 100 mg/kg sc, survival to day 30 = cure",14 days
same,IC50,"[2]; in vitro, K1 strain, read-out: IC50 (ng/ml) K1",1.2 ng/mL
same,IC50,"[3]; in vitro, NF54 strain, read-out: IC50 (ng/ml) NF54",1.9 ng/mL
same,ED50,"P. berghei [4]; 1 day, po, read-out: P. berghei (1 day) ED50 po",9.1 mg/kg
same,ED90,"P. berghei [4]; 1 day, po",14 mg/kg
"C1COC2(CCC3(CC2)OOC2(O3)C3CC4CC(C3)CC2C4)O1 (stereo not shown) [OZ10, Adamantane-2-spiro-3′-1′,2′,4′,9′,12′-pentaoxadispiro[4.2.4.2]tetradecane]",P. berghei (4 day) ED90 po,"P. berghei [5]; 4 day, po",3.0 mg/kg
same,P. berghei (4 day) ED90 sc,"P. berghei [5]; 4 day, sc",0.9 mg/kg
same,ED50,"P. berghei [5]; po, read-out: P. berghei (4 day) ED50 po",1.3 mg/kg
same,ED50,"P. berghei [5]; sc, read-out: P. berghei (4 day) ED50 sc",0.5 mg/kg
same,inhibition in vivo at 10 mg/kg,"[1]; po, read-out: Activity (%) po",99.6%
same,inhibition in vivo at 10 mg/kg,"[1]; sc, read-out: Activity (%) sc",100%
same,Tm dec. (° C.),[6],159.4 °C
same,IC50,"[2]; K1, read-out: IC50 (ng/ml) K1",0.4 ng/mL
same,IC50,[3]; [9],0.67 ng/mL
same,P. berghei (1 day) ED90 sc,"P. berghei [4]; 1 day, sc",2.2 mg/kg
same,ED50,"P. berghei [4]; po, read-out: P. berghei (1 day) ED50 po",2.3 mg/kg
same,ED90,P. berghei [4]; po,6.3 mg/kg
same,ED50,"P. berghei [4]; sc, read-out: P. berghei (1 day) ED50 sc",0.06 mg/kg
"O=C1CCC2(CCO1)OOC1(O2)C2CC3CC(C2)CC1C3 (stereo not shown) [OZ17, Adamantane-2-spiro-3′-9′-oxo-1′,2′,4′,8′-tetraoxaspiro[4.6]undecane]",Percentage of dead worm,[7],5.2 (10/191)
same,Total dead worm,[7],10
same,TWR (%),[7],0%
same,Mean total worm burden,[7],36.2 ± 13.8
same,Tm dec. (° C.),[6],158.4 °C
same,FWR (%),[8],7%
same,Mean female worm burden,[8],11.6 ± 3.3^a
same,TWR (%),[8],23%
same,IC50 (ng/ml) K1,"[2]; in vitro, K1 strain",85 ng/mL
same,IC50 (ng/ml) NF54,"[3]; in vitro, NF54 strain",> 100 ng/mL
"O=C1CCC2(CC1)OOC1(CCCCCCCCCCC1)O2 [OZ21, 3-Oxo-7,20,21-trioxadispiro[5.1.11.2]heneicosane]",Percentage of dead worm,[7],0
same,Total dead worm,[7],0
same,TWR (%),[7],0%
same,Mean total worm burden,[7],36.2 ± 9.0
same,in vivo activity,[1],all in vivo activity was lost
same,Activity (%) po,[1]; single 10 mg/kg po,0/0%
same,Activity (%) sc,[1]; single 10 mg/kg sc,0/0%
same,Tm dec. (° C.),[6],190.7 °C
same,FWR (%),[8],0%
same,Mean female worm burden,[8],15.0 ± 9.7
same,TWR (%),[8],0%
same,IC50,"[2]; K1, read-out: IC50 (ng/ml) K1",14 ng/mL
same,"in vitro potency, fold less potent than the analog",[2]; in vitro,70 fold
same,IC50,[3]; [9],25 ng/mL
"C1CC2(CCO1)OOC1(O2)C2CC3CC(C2)CC1C3 (stereo not shown) [OZ22, Adamantane-2-spiro-3′-1′,2′,4′,8′-tetraoxaspiro[4.5]decane]",inhibition in vivo at 10 mg/kg,"[1]; po, read-out: Activity (%) po",35%
same,inhibition in vivo at 10 mg/kg,"[1]; sc, read-out: Activity (%) sc",99.6%
same,FWR (%),[8],76%
same,Mean female worm burden,[8],3.0 ± 1.9^b
same,TWR (%),[8],75%
same,IC50,"[2]; K1, read-out: IC50 (ng/ml) K1",0.32 ng/mL
same,IC50,[3]; [9],0.56 ng/mL
"O=[N+]([O-])c1ccc(NN=C2CCC3(CC2)OOC2(O3)C3CC4CC(C3)CC2C4)c([N+](=O)[O-])c1 (stereo not shown) [OZ29, Adamantane-2-spiro-3′-1′,2′,4′-trioxaspiro[4.5] decan-8′-one 2,4-dinitrophenylhydrazone]",Percentage of dead worm,[7],0
same,Total dead worm,[7],0
same,TWR (%),[7],13.4%
same,Mean total worm burden,[7],31.0 ± 13.7^a
same,Activity (%) po,[1]; single 10 mg/kg po,0/0%
same,Activity (%) sc,[1]; single 10 mg/kg sc,0/0%
same,Survival (days) po,[1]; single 10 mg/kg po,5.0/5.0 days
same,Survival (days) sc,[1]; single 10 mg/kg sc,5.0/5.0 days
same,Tm dec. (° C.),[6],155.7 °C
same,FWR (%),[8],20%
same,Mean female worm burden,[8],10.0 ± 3.7^a
same,TWR (%),[8],28%
same,IC50,"[2]; K1, read-out: IC50 (ng/ml) K1",9.7 ng/mL
same,IC50,[3]; [9],13 ng/mL
"O=C(NN=C1CCC2(CC1)OOC1(O2)C2CC3CC(C2)CC1C3)Nc1ccccc1 (stereo not shown) [OZ30, Adamantane-2-spiro-3′-1′,2′,4′-trioxaspiro[4.5]decan-8′-one 4-phenylsemicarbazone]",P. berghei (4 day) ED90 po,"P. berghei [5]; 4 day, po",<10/>10 mg/kg
same,ED50,"P. berghei [5]; 4 day, po, read-out: P. berghei (4 day) ED50 po",< 10 mg/kg
same,Tm dec. (° C.),[6],174.8 °C
same,IC50,"[2]; K1, read-out: IC50 (ng/ml) K1",0.65 ng/mL
same,IC50,"[2]; in vitro, K1 and NF54 strains not distinguished, read-out: IC50",< 5 ng/mL
same,IC50,[3]; [9],1.3 ng/mL
"CC1(C)COC2(CCC3(CC2)OOC2(CC(C)(C)CC(C)(C)C2)O3)OC1 [OZ36, 2,2,4,4,14,14-Hexamethyl-7,12,16,19,20-pentaoxatrispiro[5.1.2.5.2.2]icosane]",Percentage of dead worm,[7],0
same,Total dead worm,[7],0
same,TWR (%),[7],0%
same,Mean total worm burden,[7],40.2 ± 12.2
same,in vivo activity,[1],all in vivo activity was lost
same,Activity (%) po,[1]; single 10 mg/kg po,0/0%
same,Activity (%) sc,[1]; single 10 mg/kg sc,0/0%
same,Survival (days) po,[1]; single 10 mg/kg po,5.7/5.7 days
same,Survival (days) sc,[1]; single 10 mg/kg sc,5.7/5.7 days
same,Tm dec. (° C.),[6],201.7 °C
same,FWR (%),[8],12%
same,Mean female worm burden,[8],11.0 ± 4.0^a
same,TWR (%),[8],16%
same,IC50,"[2]; K1, read-out: IC50 (ng/ml) K1",24 ng/mL
same,"in vitro potency, fold less potent than the analog",[2]; in vitro,~20 fold
same,IC50,[3]; [9],62 ng/mL
"O=C(O)CC1CCC2(CC1)OOC1(O2)C2CC3CC(C2)CC1C3 (stereo not shown) [OZ78, Adamantane-2-spiro-3′-8′-carboxymethyl-1′,2′,4′-trioxaspiro[4.5]decane]",in vivo activity,[1],promising
same,Tm dec. (° C.),[6],157.5 °C
same,IC50 (ng/ml) K1,"[2]; in vitro, K1 strain",>10/>10 ng/ml
same,in vitro potency,[2]; in vitro,only weakly active
same,IC50 (ng/ml) NF54,"[3]; in vitro, NF54 strain",>10/>10 ng/ml
"C1CC2(CCN1)OOC1(O2)C2CC3CC(C2)CC1C3.Cl (stereo not shown) [OZ80, Adamantane-2-spiro-3′-1′,2′,4′-trioxa-8′-azaspiro[4.5]decane hydrochloride]",in vivo activity,[1],modest
same,Tm dec. (° C.),[6],129.8 °C
same,IC50,"[2]; K1, read-out: IC50 (ng/ml) K1",< 0.16 ng/mL
same,in vitro potency,[2]; in vitro,quite potent
same,IC50,[3]; [9],0.34 ng/mL
"c1ccc(C2(c3ccccn3)OOC3(O2)C2CC4CC(C2)CC3C4)nc1 (stereo not shown) [OZ81, Adamantane-2-spiro-3′-5′,5′-bis(2′-pyridyl)-1′,2′,4′-trioxolane]","antimalarial activity, overall assessment",[1]; overall judgement of in vitro and in vivo data of Table 2,inactive
same,Activity (%) po,[1]; single 10 mg/kg po,0/0%
same,Activity (%) sc,[1]; single 10 mg/kg sc,0/0%
same,Tm dec. (° C.),[6],150.7 °C
same,IC50 (ng/ml) K1,"[2]; in vitro, K1 strain",>10/>10 ng/ml
same,IC50 (ng/ml) NF54,"[3]; in vitro, NF54 strain",>10/>10 ng/ml
"c1ccc2c(c1)CCCC21OOC2(O1)C1CC3CC(C1)CC2C3 (stereo not shown) [OZ84, Adamantane-2-spiro-3′-1′,2′,4′-trioxolane-5′-spiro-1″-3″,4″-dihydro-2″H-naphthalene]",in vivo activity,[1],good
same,Tm dec. (° C.),[6],164.5 °C
same,in vitro potency,[2]; in vitro,very active
same,IC50 (ng/ml) NF54,"[3]; in vitro, NF54 strain",/1.9 ng/ml
